Source: US20170112831A1, “USE OF CCR1 ANTAGONISTS AS A TREATMENT FOR TUMORS OF THE CENTRAL NERVOUS SYSTEM” (priority 2015, published 2017)

Test system: GL261 murine glioma cells
Assay: Microglia stimulated glioma invasion, Matrigel-coated invasion chamber coculture assay
Type: cell-based
Conditions: 250 nM CCR1 antagonist, 48 hours, GL261 cocultured with microglia, vs DMSO; FIG. 1
Protocol: Microglial stimulation of glioma invasion. CCR1 antagonists were screened using the glioblastoma cells and microglia invasion assay described below.
GL261 murine glioma cells expressing the fluorescent protein m-Cherry and microglial (MG) cells stained with cell tracker green (CMFDA; Invitrogen) were cocultured on Matrigel-coated invasion chambers (Becton, Dickinson and Company). Cells were plated at a density per invasion chamber of 100,000 labeled GL261 cells with an additional 150,000 unlabelled GL261 cells or with 50,000 unlabelled GL261 and 50,000 MG cells in M-SFM with 0.3% BSA. Invasion chambers were incubated for 48 hours in the presence of DMSO, or 250 nM of the CCR1 antagonist, after which they were fixed in 3.7% paraformaldehyde in PBS. Imaging of the cells on the bottom of the filter was performed using an AMG EVOS epifluorescent microscope. The extent of invasion was quantified by counting the number of glioblastoma cells (green) that were on the underside of the filter in at least seven 10× fields. The final number of invasive cells in the control was multiplied by 0.75 to normalize.

Cc1nnc([C@H]2CCCN2C(=O)Nc2ccc(C(F)(F)F)cc2)n1Cc1ccc(Cl)cc1 [Compound #1]
reduction in the number of invasive glioma cells: greater than 50%
